According to ChEMBL document CHEMBL5634077, “Recent advances in 1,2,3- and 1,2,4-triazole hybrids as antimicrobials and their SAR: A critical review” (2023):
In brackets after ≈: the same amount, converted by molar mass. One block for each compound: values may come before it.

How the values were obtained:
Staphylococcus aureus [1] = assay: Antimicrobial activity against Staphylococcus aureus assessed as diameter of inhibition zone incubated for 24 hrs by disc-diffusion method; assay type: functional
Escherichia coli [2] = assay: Antimicrobial activity against Escherichia coli assessed as diameter of inhibition zone incubated for 24 hrs by disc-diffusion method; assay type: functional
Klebsiella pneumoniae = assay: Antimicrobial activity against Klebsiella pneumoniae assessed as diameter of inhibition zone incubated for 24 hrs by disc-diffusion method; assay type: functional
Candida albicans [3] = assay: Antimicrobial activity against Candida albicans assessed as diameter of inhibition zone incubated for 24 hrs by disc-diffusion method; assay type: functional
Staphylococcus aureus [4] = assay: Antibacterial activity against Staphylococcus aureus NCIM 2079 assessed as reduction in bacterial growth incubated for 18 to 24 hrs by broth microdilution method; assay type: functional; settings: time 18-24 hrs
Bacillus subtilis [5] = assay: Antibacterial activity against Bacillus subtilis NCIM 2063 assessed as reduction in bacterial growth incubated for 18 to 24 hrs by broth microdilution method; assay type: functional; settings: time 18-24 hrs
Bacillus cereus [6] = assay: Antibacterial activity against Bacillus cereus NCIM 2156 assessed as reduction in bacterial growth incubated for 18 to 24 hrs by broth microdilution method; assay type: functional; settings: time 18-24 hrs
Pseudomonas aeruginosa [7] = assay: Antibacterial activity against Pseudomonas aeruginosa NCIM 2036 assessed as reduction in bacterial growth incubated for 18 to 24 hrs by broth microdilution method; assay type: functional; settings: time 18-24 hrs
Escherichia coli [8] = assay: Antibacterial activity against Escherichia coli NCIM 2065 assessed as reduction in bacterial growth incubated for 18 to 24 hrs by broth microdilution method; assay type: functional; settings: time 18-24 hrs
Proteus mirabilis = assay: Antibacterial activity against Proteus mirabilis NCIM 2241 assessed as reduction in bacterial growth incubated for 18 to 24 hrs by broth microdilution method; assay type: functional; settings: time 18-24 hrs
Proteus vulgaris [9] = assay: Antibacterial activity against Proteus vulgaris NCIM 2027 assessed as reduction in bacterial growth incubated for 18 to 24 hrs by broth microdilution method; assay type: functional; settings: time 18-24 hrs
Candida albicans [10] = assay: Antifungal activity against Candida albicans assessed as diameter of inhibition zone at 50 to 100 ug/ml by disc-diffusion method; assay type: functional; settings: dose 50-100 µg/ml
Aspergillus flavus = assay: Antifungal activity against Aspergillus flavus assessed as diameter of inhibition zone at 50 to 100 ug/ml by disc-diffusion method; assay type: functional; settings: dose 50-100 µg/ml
Bacillus subtilis [11] = assay: Antibacterial activity against Bacillus subtilis assessed as reduction in bacterial growth; assay type: functional
Micrococcus luteus [12] = assay: Antibacterial activity against Micrococcus luteus assessed as reduction in microbial growth; assay type: functional
Proteus vulgaris [13] = assay: Antibacterial activity against Proteus vulgaris assessed as reduction in bacterial growth; assay type: functional
Bacillus subtilis [14] = assay: Antibacterial activity against Bacillus subtilis ATCC 6633 assessed as reduction in microbial growth; assay type: functional
Micrococcus luteus [15] = assay: Antibacterial activity against Micrococcus luteus IFC 12708 assessed as reduction in microbial growth; assay type: functional
Staphylococcus aureus [16] = assay: Antibacterial activity against Staphylococcus aureus ATCC 6538p assessed as reduction in microbial growth; assay type: functional
Proteus vulgaris [17] = assay: Antibacterial activity against Proteus vulgaris ATCC 3851 assessed as reduction in microbial growth; assay type: functional
Salmonella typhimurium = assay: Antibacterial activity against Salmonella typhimurium SL1344 assessed as reduction in microbial growth; assay type: functional, Salmonella enterica subsp. enterica serovar Typhimurium; settings: Salmonella enterica
Escherichia coli [18] = assay: Antibacterial activity against Escherichia coli ATCC 25922 assessed as reduction in microbial growth; assay type: functional
Pseudomonas aeruginosa [19] = assay: Antibacterial activity against Pseudomonas aeruginosa MTCC 1034 assessed as reduction in bacterial growth; assay type: functional
Bacillus subtilis [20] = assay: Antibacterial activity against Bacillus subtilis MTCC 441 assessed as reduction in bacterial growth; assay type: functional
Escherichia coli [21] = assay: Antibacterial activity against Escherichia coli ATCC 8739 assessed as reduction in bacterial growth by micro-broth dilution method; assay type: functional
Pseudomonas aeruginosa [22] = assay: Antibacterial activity against Pseudomonas aeruginosa MCCB 0035 assessed as reduction in bacterial growth by micro-broth dilution method; assay type: functional
Staphylococcus aureus [23] = assay: Antibacterial activity against Staphylococcus aureus ATCC 29213 assessed as reduction in bacterial growth by micro-broth dilution method; assay type: functional
Bacillus subtilis [24] = assay: Antibacterial activity against Bacillus subtilis NCIM-2063 by CLSI based microdilution assay; assay type: functional
Bacillus cereus [25] = assay: Antibacterial activity against Bacillus cereus NCIM-2156 by CLSI based microdilution assay; assay type: functional
Staphylococcus aureus [26] = assay: Antibacterial activity against Staphylococcus aureus NCIM-2079 by CLSI based microdilution assay; assay type: functional
Escherichia coli [27] = assay: Antibacterial activity against Escherichia coli NCIM-2065 by CLSI based microdilution assay; assay type: functional
Proteus vulgaris [28] = assay: Antibacterial activity against Proteus vulgaris NCIM-2027 by CLSI based microdilution assay; assay type: functional
Staphylococcus aureus [29] = assay: Antibacterial activity against Staphylococcus aureus assessed as reduction in bacterial growth incubated for 24 hrs by broth microdilution method; assay type: functional

SMILES: COc1cc(/C=N/n2c(-c3ccc(Cl)cc3)n[nH]c2=S)ccc1O
diameter of the inhibition zone (DIZ) (Staphylococcus aureus [1]): 4 mm | diameter of the inhibition zone (DIZ) (Escherichia coli [2]): 4 mm | diameter of the inhibition zone (DIZ) (Klebsiella pneumoniae): 4 mm | diameter of the inhibition zone (DIZ) (Candida albicans [3]): 4 mm

MIC (Staphylococcus aureus [4]): 3.12 µg/mL (≈ 6.98 µM) | MIC (Bacillus subtilis [5]): 12.5 µg/mL (≈ 27.9 µM) | MIC (Bacillus cereus [6]): 3.12 µg/mL (≈ 6.98 µM) | MIC (Pseudomonas aeruginosa [7]): 25 µg/mL (≈ 55.8 µM) | MIC (Escherichia coli [8]): 6.25 µg/mL (≈ 14 µM) | MIC (Proteus mirabilis): 12.5 µg/mL (≈ 27.9 µM) | MIC (Proteus vulgaris [9]): 12.5 µg/mL (≈ 27.9 µM)
SMILES: Nn1c(NCCCNc2ccnc3cc(Cl)ccc23)nn(CN2CCNCC2)c1=S

SMILES: CCOC(=O)C1=C(C)Oc2nc(C)n(Cc3cn(-c4cccc(C(F)(F)F)c4)nn3)c(=O)c2C1c1ccc([N+](=O)[O-])cc1 (stereo not given)
diameter of the inhibition zone (DIZ) (Candida albicans [10]): 10.5 mm | diameter of the inhibition zone (DIZ) (Aspergillus flavus): 10.5 mm

SMILES: CC1(C)S[C@@H]2[C@H](NC(=O)[C@H](N)c3ccccc3)C(=O)N2[C@H]1C(=O)O [AMPICILLIN]
MIC (Bacillus subtilis [11]): 1.56 µg/mL (≈ 4.46 µM) | MIC (Micrococcus luteus [12]): 1.56 µg/mL | MIC (Proteus vulgaris [13]): 1.56 µg/mL (≈ 4.46 µM) | MIC (Bacillus subtilis [14]): 1.56 µg/mL | MIC (Micrococcus luteus [15]): 1.56 µg/mL | MIC (Staphylococcus aureus [16]): 1.56 µg/mL | MIC (Proteus vulgaris [17]): 1.56 µg/mL | MIC (Salmonella typhimurium): 1.56 µg/mL | MIC (Escherichia coli [18]): 1.56 µg/mL | MIC (Pseudomonas aeruginosa [19]): 0.5 µg/mL (≈ 1.43 µM) | MIC (Bacillus subtilis [20]): 0.5 µg/mL (≈ 1.43 µM) | MIC (Escherichia coli [21]): 1 µg/mL (≈ 2.86 µM) | MIC (Pseudomonas aeruginosa [22]): 4 µg/mL (≈ 11.4 µM) | MIC (Staphylococcus aureus [23]): 2 µg/mL (≈ 5.72 µM)

MIC (Bacillus subtilis [24]): 3.12 µg/mL (≈ 5.97 µM) | MIC (Bacillus cereus [25]): 3.12 µg/mL (≈ 5.97 µM) | MIC (Staphylococcus aureus [26]): 3.12 µg/mL (≈ 5.97 µM) | MIC (Escherichia coli [27]): 3.12 µg/mL (≈ 5.97 µM) | MIC (Proteus vulgaris [28]): 3.12 µg/mL (≈ 5.97 µM)
SMILES: O=C(CNN1C(=O)CSC1c1ccc(-c2ccc(F)cc2)cc1)NN1C(c2ccncc2)=NNC1S (stereo not given)

MIC (Staphylococcus aureus [29]): 12.3 µg/mL (≈ 32.4 µM)
SMILES: Cc1ccc2c(c1)c(=O)c1ccccc1n2Cc1cn(-c2ccccc2C)nn1

SMILES: CC(=O)N1CCN(c2ccc(OCC3COC(Cn4ccnc4)(c4ccc(Cl)cc4Cl)O3)cc2)CC1 (stereo not given) [KETOCONAZOLE]
diameter of the inhibition zone (DIZ) (Candida albicans [10]): 14 mm | diameter of the inhibition zone (DIZ) (Aspergillus flavus): 14 mm
